These are literature values, as cited in patent US20060163529A1, “Water-based coolant fluid for engine applications” (Neste Oil Oyj, priority 2002, published 2006).

The data set deals with rats. Particulars: tested orally in rats.

`CC(O)CO` (centres unmarked) [Propylene glycol, propylene glycol]: the LD50 is recorded as 20 000 mg/kg.
On to `C[N+](C)(C)CC(=O)O` [Trimethyl glycine, trimethyl glycine], for which the LD50 was 11 200 mg/kg.
